# Results reported in PubChem BioAssay (NCI).
#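 Five concentrations, 48 hours, 96-well plates. Definition used: TGI = concentration required for complete inhibition of growth.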
# Tests used:
# Test in all cases: NCI tumour cell line growth inhibition, 48 h
# OVCAR-8 ovarian = system: OVCAR-8 ovarian
# SF-295 CNS = system: SF-295 CNS
# M14 melanoma = system: M14 melanoma
# CAKI-1 renal = system: CAKI-1 renal
# OVCAR-3 ovarian = system: OVCAR-3 ovarian
# EKVX NSCLC = system: EKVX NSCLC
# SW-620 colon = system: SW-620 colon
# HT29 colon = system: HT29 colon
# SF-539 CNS = system: SF-539 CNS
# NCI-H460 lung = system: NCI-H460 lung
# NCI-H23 lung = system: NCI-H23 lung
# SK-MEL-5 melanoma = system: SK-MEL-5 melanoma
# SK-OV-3 ovarian = system: SK-OV-3 ovarian
# OVCAR-5 ovarian = system: OVCAR-5 ovarian
# DU-145 prostate = system: DU-145 prostate
# UACC-62 melanoma = system: UACC-62 melanoma
# MDA-N = system: MDA-N
# LOX IMVI melanoma = system: LOX IMVI melanoma
# BT-549 breast = system: BT-549 breast
# SN12C renal = system: SN12C renal
# ACHN renal = system: ACHN renal
# RPMI-8226 leukemia = system: RPMI-8226 leukemia
# NCI-H226 lung = system: NCI-H226 lung
# KM12 colon = system: KM12 colon
# 786-0 renal = system: 786-0 renal
# UACC-257 melanoma = system: UACC-257 melanoma
# SR leukemia = system: SR leukemia
# U251 CNS = system: U251 CNS
# HCC-2998 colon = system: HCC-2998 colon
# NCI/ADR-RES ovarian = system: NCI/ADR-RES ovarian
# HCT-15 colon = system: HCT-15 colon
# HCT-116 colon = system: HCT-116 colon
# A549 NSCLC = system: A549 NSCLC
# UO-31 renal = system: UO-31 renal
# TK-10 renal = system: TK-10 renal
# SK-MEL-2 melanoma = system: SK-MEL-2 melanoma
# PC-3 prostate = system: PC-3 prostate
# COLO 205 colon = system: COLO 205 colon
# HOP-62 NSCLC = system: HOP-62 NSCLC
# MDA-MB-231 breast = system: MDA-MB-231 breast
# SF-268 CNS = system: SF-268 CNS
# T-47D breast = system: T-47D breast
# MDA-MB-435 = system: MDA-MB-435
# MOLT-4 leukemia = system: MOLT-4 leukemia
# CCRF-CEM leukemia = system: CCRF-CEM leukemia
# OVCAR-4 ovarian = system: OVCAR-4 ovarian
# SNB-19 CNS = system: SNB-19 CNS
# A498 renal = system: A498 renal
# MCF7 breast = system: MCF7 breast
# HOP-92 NSCLC = system: HOP-92 NSCLC
# MALME-3M melanoma = system: MALME-3M melanoma
# HL-60(TB) leukemia = system: HL-60(TB) leukemia
# IGROV1 ovarian = system: IGROV1 ovarian
# SNB-75 CNS = system: SNB-75 CNS
# K-562 leukemia = system: K-562 leukemia
# SK-MEL-28 melanoma = system: SK-MEL-28 melanoma
# NCI-H522 lung = system: NCI-H522 lung
# RXF 393 renal = system: RXF 393 renal
smiles,measurement,setting,value
CCNC(=S)NNC(=O)c1csc(NC(=S)NC2CCCCC2)n1,TGI,OVCAR-8 ovarian,28.1 µM
same,TGI,SF-295 CNS,40.7 µM
same,TGI,M14 melanoma,27.1 µM
same,TGI,CAKI-1 renal,31.1 µM
same,TGI,OVCAR-3 ovarian,16.2 µM
same,TGI,EKVX NSCLC,> 100 µM
same,TGI,SW-620 colon,19.2 µM
same,TGI,HT29 colon,> 100 µM
same,TGI,SF-539 CNS,22.8 µM
same,TGI,NCI-H460 lung,35.2 µM
same,TGI,NCI-H23 lung,> 100 µM
same,TGI,SK-MEL-5 melanoma,15.5 µM
same,TGI,SK-OV-3 ovarian,62.3 µM
same,TGI,OVCAR-5 ovarian,> 100 µM
same,TGI,DU-145 prostate,45.8 µM
same,TGI,UACC-62 melanoma,27.7 µM
same,TGI,MDA-N,15.8 µM
same,TGI,LOX IMVI melanoma,21.4 µM
same,TGI,BT-549 breast,36.6 µM
same,TGI,SN12C renal,17.3 µM
same,TGI,ACHN renal,89.8 µM
same,TGI,RPMI-8226 leukemia,71.6 µM
same,TGI,NCI-H226 lung,> 100 µM
same,TGI,KM12 colon,28 µM
same,TGI,786-0 renal,25.6 µM
same,TGI,UACC-257 melanoma,27.3 µM
same,TGI,SR leukemia,> 100 µM
same,TGI,U251 CNS,23.7 µM
same,TGI,HCC-2998 colon,23.8 µM
same,TGI,NCI/ADR-RES ovarian,42.4 µM
same,TGI,HCT-15 colon,37.2 µM
same,TGI,HCT-116 colon,18.8 µM
same,TGI,A549 NSCLC,67.8 µM
same,TGI,UO-31 renal,23.1 µM
same,TGI,TK-10 renal,> 100 µM
same,TGI,SK-MEL-2 melanoma,29.3 µM
same,TGI,PC-3 prostate,64.5 µM
same,TGI,COLO 205 colon,21.9 µM
same,TGI,HOP-62 NSCLC,32.4 µM
same,TGI,MDA-MB-231 breast,24.9 µM
same,TGI,SF-268 CNS,31.4 µM
same,TGI,T-47D breast,53.7 µM
same,TGI,MDA-MB-435,21.1 µM
same,TGI,MOLT-4 leukemia,63.5 µM
same,TGI,CCRF-CEM leukemia,> 100 µM
same,TGI,OVCAR-4 ovarian,56.9 µM
same,TGI,SNB-19 CNS,> 100 µM
same,TGI,A498 renal,40 µM
same,TGI,MCF7 breast,> 100 µM
C=C=C(C)C(=O)N(C(C)C)C(C)C,TGI,OVCAR-8 ovarian,> 100 µM
same,TGI,SF-295 CNS,> 100 µM
same,TGI,M14 melanoma,> 100 µM
same,TGI,HOP-92 NSCLC,> 100 µM
same,TGI,MALME-3M melanoma,> 100 µM
same,TGI,OVCAR-3 ovarian,> 100 µM
same,TGI,EKVX NSCLC,> 100 µM
same,TGI,SW-620 colon,> 100 µM
same,TGI,HT29 colon,> 100 µM
same,TGI,NCI-H460 lung,> 100 µM
same,TGI,NCI-H23 lung,> 100 µM
same,TGI,SK-MEL-5 melanoma,> 100 µM
same,TGI,SK-OV-3 ovarian,> 100 µM
same,TGI,OVCAR-5 ovarian,> 100 µM
same,TGI,HL-60(TB) leukemia,> 100 µM
same,TGI,DU-145 prostate,> 100 µM
same,TGI,UACC-62 melanoma,> 100 µM
same,TGI,MDA-N,> 100 µM
same,TGI,LOX IMVI melanoma,> 100 µM
same,TGI,BT-549 breast,> 100 µM
same,TGI,SN12C renal,> 100 µM
same,TGI,ACHN renal,> 100 µM
same,TGI,RPMI-8226 leukemia,> 100 µM
same,TGI,NCI-H226 lung,> 100 µM
same,TGI,786-0 renal,> 100 µM
same,TGI,UACC-257 melanoma,> 100 µM
same,TGI,SR leukemia,> 100 µM
same,TGI,U251 CNS,> 100 µM
same,TGI,HCC-2998 colon,> 100 µM
same,TGI,NCI/ADR-RES ovarian,> 100 µM
same,TGI,HCT-15 colon,> 100 µM
same,TGI,HCT-116 colon,> 100 µM
same,TGI,A549 NSCLC,> 100 µM
same,TGI,IGROV1 ovarian,> 100 µM
same,TGI,UO-31 renal,> 100 µM
same,TGI,SNB-75 CNS,> 100 µM
same,TGI,TK-10 renal,> 100 µM
same,TGI,PC-3 prostate,> 100 µM
same,TGI,K-562 leukemia,> 100 µM
same,TGI,SK-MEL-28 melanoma,> 100 µM
same,TGI,COLO 205 colon,> 100 µM
same,TGI,HOP-62 NSCLC,> 100 µM
same,TGI,MDA-MB-231 breast,> 100 µM
same,TGI,SF-268 CNS,> 100 µM
same,TGI,T-47D breast,> 100 µM
same,TGI,MDA-MB-435,> 100 µM
same,TGI,MOLT-4 leukemia,> 100 µM
same,TGI,CCRF-CEM leukemia,> 100 µM
same,TGI,OVCAR-4 ovarian,> 100 µM
same,TGI,SNB-19 CNS,> 100 µM
same,TGI,A498 renal,> 100 µM
same,TGI,MCF7 breast,> 100 µM
CN1CCN(CCCCN2c3ccccc3Sc3ccc(C(=O)c4ccccc4)cc32)CC1,TGI,OVCAR-8 ovarian,2.97 µM
same,TGI,SF-295 CNS,3.45 µM
same,TGI,M14 melanoma,3.32 µM
same,TGI,HOP-92 NSCLC,4.68 µM
same,TGI,MALME-3M melanoma,7.3 µM
same,TGI,CAKI-1 renal,2.75 µM
same,TGI,OVCAR-3 ovarian,3.71 µM
same,TGI,EKVX NSCLC,15.5 µM
same,TGI,SW-620 colon,3.2 µM
same,TGI,HT29 colon,2.6 µM
same,TGI,SF-539 CNS,3.41 µM
same,TGI,NCI-H23 lung,3.71 µM
same,TGI,SK-MEL-5 melanoma,3.08 µM
same,TGI,SK-OV-3 ovarian,2.94 µM
same,TGI,OVCAR-5 ovarian,7.43 µM
same,TGI,HL-60(TB) leukemia,3.66 µM
same,TGI,DU-145 prostate,6.73 µM
same,TGI,UACC-62 melanoma,2.52 µM
same,TGI,MDA-N,2.92 µM
same,TGI,LOX IMVI melanoma,3.22 µM
same,TGI,BT-549 breast,3.04 µM
same,TGI,SN12C renal,3.19 µM
same,TGI,ACHN renal,3.06 µM
same,TGI,NCI-H226 lung,3.7 µM
same,TGI,KM12 colon,2.49 µM
same,TGI,UACC-257 melanoma,3.36 µM
same,TGI,SR leukemia,4.61 µM
same,TGI,NCI-H522 lung,3.44 µM
same,TGI,U251 CNS,3.09 µM
same,TGI,HCC-2998 colon,2.94 µM
same,TGI,HCT-15 colon,3.06 µM
same,TGI,HCT-116 colon,3.29 µM
same,TGI,A549 NSCLC,3.55 µM
same,TGI,IGROV1 ovarian,3.19 µM
same,TGI,UO-31 renal,6.27 µM
same,TGI,SNB-75 CNS,2.58 µM
same,TGI,TK-10 renal,3.11 µM
same,TGI,SK-MEL-2 melanoma,3.41 µM
same,TGI,PC-3 prostate,2.83 µM
same,TGI,K-562 leukemia,2.79 µM
same,TGI,SK-MEL-28 melanoma,2.85 µM
same,TGI,COLO 205 colon,3.28 µM
same,TGI,HOP-62 NSCLC,3.16 µM
same,TGI,MDA-MB-231 breast,3.38 µM
same,TGI,SF-268 CNS,13 µM
same,TGI,T-47D breast,45.4 µM
same,TGI,MDA-MB-435,3.24 µM
same,TGI,MOLT-4 leukemia,3.43 µM
same,TGI,RXF 393 renal,2.57 µM
same,TGI,OVCAR-4 ovarian,6.13 µM
same,TGI,SNB-19 CNS,3.45 µM
same,TGI,A498 renal,3.12 µM
same,TGI,MCF7 breast,3.65 µM
